Results taken from ChEMBL document CHEMBL3045468, “I2 catalyzed FriedelCrafts alkylation reaction of substituted anilines with ninhydrin: formation of novel products and their antimicrobial evaluation” (2013).
Converted amounts (≈) assume the structure as drawn. The source made the active and inactive calls. No cut-off for these calls is given here.

Assays:
Assay type in all cases: functional
[1] = system: Pseudomonas aeruginosa; assay: Antibacterial activity against Pseudomonas aeruginosa 71 clinical isolate assessed as growth inhibition at 1 mg/ml after 24 hr by NCCLS agar diffusion method
[2] = system: Vibrio cholerae; assay: Antibacterial activity against Vibrio cholerae 759 clinical isolate assessed as growth inhibition at 1 mg/ml after 24 hr by NCCLS agar diffusion method; conditions: for zone of inhibition at 1000 µg/mL: Vibrio cholerae, 759, 24 h, read-out: DIZ
[3] = system: Staphylococcus aureus; assay: Antibacterial activity against Staphylococcus aureus 29737 clinical isolate assessed as growth inhibition at 1 mg/ml after 24 hr by NCCLS agar diffusion method; conditions: for zone of inhibition at 1000 µg/mL: Staphylococcus aureus, 29737, 24 h, read-out: DIZ
[4] = system: Micrococcus luteus; assay: Antibacterial activity against Micrococcus luteus ATCC 9341 clinical isolate assessed as growth inhibition at 1 mg/ml after 24 hr by NCCLS agar diffusion method; conditions: for zone of inhibition at 1000 µg/mL: ATCC 9341, 24 h, read-out: DIZ
[5] = system: Shigella dysenteriae; assay: Antibacterial activity against Shigella dysenteriae 15 clinical isolate assessed as growth inhibition at 1 mg/ml after 24 hr by NCCLS agar diffusion method; conditions: for zone of inhibition at 1000 µg/mL: Shigella dysenteriae, 15, 24 h, read-out: DIZ
[6] = system: Escherichia coli; assay: Antibacterial activity against Escherichia coli 319 clinical isolate assessed as growth inhibition at 1 mg/ml after 24 hr by NCCLS agar diffusion method; conditions: for zone of inhibition at 1000 µg/mL: Escherichia coli, 319, 24 h, read-out: DIZ
[7] = system: Klebsiella pneumoniae; assay: Antibacterial activity against Klebsiella pneumoniae J/I/4 clinical isolate assessed as growth inhibition at 1 mg/ml after 24 hr by NCCLS agar diffusion method; conditions: for zone of inhibition at 1000 µg/mL: J/I/4, 24 h, read-out: DIZ
[8] = system: Bacillus pumilus; assay: Antibacterial activity against Bacillus pumilus 11778 clinical isolate assessed as growth inhibition at 1 mg/ml after 24 hr by NCCLS agar diffusion method; conditions: for zone of inhibition at 1000 µg/mL: Bacillus pumilus, 11778, 24 h, read-out: DIZ
[9] = system: Shigella dysenteriae; assay: Antibacterial activity against Shigella dysenteriae 15 clinical isolate assessed as growth inhibition after 24 hr by agar dilution method; conditions: Shigella dysenteriae, 15, 24 h
[10] = system: Aspergillus niger; assay: Antifungal activity against Aspergillus niger clinical isolate assessed as growth inhibition at 1 mg/ml after 96 hr by NCCLS agar diffusion method; conditions: read-out: DIZ
[11] = system: Candida albicans; assay: Antifungal activity against Candida albicans clinical isolate assessed as growth inhibition at 1 mg/ml after 96 hr by NCCLS agar diffusion method; conditions: read-out: DIZ
[12] = system: Candida tropicalis; assay: Antifungal activity against Candida tropicalis clinical isolate assessed as growth inhibition at 1 mg/ml after 96 hr by NCCLS agar diffusion method; conditions: read-out: DIZ
[13] = system: Candida tropicalis; assay: Antifungal activity against Candida tropicalis clinical isolate assessed as growth inhibition after 96 hr by agar dilution method
[14] = system: Aspergillus niger; assay: Antifungal activity against Aspergillus niger clinical isolate assessed as growth inhibition after 96 hr by agar dilution method
[15] = system: Candida albicans; assay: Antifungal activity against Candida albicans clinical isolate assessed as growth inhibition after 96 hr by agar dilution method

| Structure (SMILES) | growth inhibition (GI) [1] | growth inhibition (GI) [2] | growth inhibition (GI) [3] | growth inhibition (GI) [4] | growth inhibition (GI) [5] | zone of inhibition at 1000 µg/mL [6] | growth inhibition (GI) [7] | growth inhibition (GI) [8] | zone of inhibition at 1000 µg/mL [3] | growth inhibition (GI) [6] | zone of inhibition at 1000 µg/mL [7] | zone of inhibition at 1000 µg/mL [8] | further results |
| --- | --- | --- | --- | --- | --- | --- | --- | --- | --- | --- | --- | --- | --- |
| Cc1ccc(NC2(c3cc(C)c(C)cc3N)C(=O)c3ccccc3C2=O)cc1C | inactive | inactive | inactive | inactive | inactive | 7 mm | inactive | inactive | – | – | – | – | – |
| Nc1ccc(C2(c3ccc(N)c(I)c3)C(=O)c3ccccc3C2=O)cc1I | – | inactive | – | – | inactive | – | inactive | inactive | 8 mm | inactive | – | – | zone of inhibition at 1000 µg/mL ([1]; Pseudomonas aeruginosa, 71, 24 h, read-out: DIZ): 8 mm; zone of inhibition at 1000 µg/mL [4]: 8 mm |
| CNc1ccc(C2(c3ccc(NC)cc3)C(=O)c3ccccc3C2=O)cc1 | inactive | – | inactive | inactive | inactive | 7 mm | – | inactive | – | – | 7.5 mm | – | zone of inhibition at 1000 µg/mL [2]: 8 mm |
| Nc1ccc(C2(c3ccc(N)c(Cl)c3)C(=O)c3ccccc3C2=O)cc1Cl | inactive | inactive | inactive | inactive | – | 8 mm | – | inactive | – | – | 8 mm | – | zone of inhibition at 1000 µg/mL [5]: 6 mm; MIC [9]: 32000 µg/mL (≈ 80.6 mM) |
| COc1cc(N)ccc1C1(O)C(=O)c2ccccc2C1=O | inactive | inactive | – | – | inactive | – | inactive | inactive | 7 mm | inactive | – | – | zone of inhibition at 1000 µg/mL [4]: 8 mm |
| CN(C)c1ccc(C2(O)C(=O)c3ccccc3C2=O)cc1 | inactive | inactive | – | inactive | inactive | 7 mm | inactive | inactive | 7 mm | – | – | – | – |
| CCN(CC)c1ccc(C2(O)C(=O)c3ccccc3C2=O)cc1 | inactive | inactive | inactive | inactive | – | 9 mm | inactive | – | – | – | – | 7 mm | zone of inhibition at 1000 µg/mL [5]: 7 mm |
| Nc1ccc(C2(O)C(=O)c3ccccc3C2=O)c2ncccc12 | inactive | inactive | inactive | inactive | inactive | 8 mm | inactive | inactive | – | – | – | – | – |
| Cc1cc(C2(c3cc(C)c(N)cc3F)C(=O)c3ccccc3C2=O)c(F)cc1N | inactive | inactive | inactive | inactive | inactive | 7 mm | – | – | – | – | 7 mm | 7 mm | – |
| Nc1ccc(C2(c3ccc(N)cc3)C(=O)c3ccccc3C2=O)cc1 | inactive | inactive | inactive | inactive | – | 6 mm | – | – | – | – | 7 mm | 8 mm | zone of inhibition at 1000 µg/mL [10]: 10 mm; zone of inhibition at 1000 µg/mL [11]: 9 mm; zone of inhibition at 1000 µg/mL [12]: 8.2 mm; zone of inhibition at 1000 µg/mL [5]: 7 mm; MIC [13]: 1000 µg/mL (≈ 3.05 mM); MIC [14]: 1000 µg/mL (≈ 3.05 mM); MIC [15]: 1000 µg/mL (≈ 3.05 mM) |
| COc1cc(C2(c3ccc(N)c(OC)c3)C(=O)c3ccccc3C2=O)ccc1N | inactive | – | inactive | inactive | inactive | – | – | – | – | inactive | 7 mm | 8 mm | zone of inhibition at 1000 µg/mL [2]: 7 mm |
| Cc1cc(C2(c3cc(C)c(N)c(C)c3)C(=O)c3ccccc3C2=O)cc(C)c1N | inactive | inactive | inactive | inactive | inactive | – | inactive | – | – | inactive | – | 9 mm | – |
| Nc1ccc(C2(c3ccc(N)c([N+](=O)[O-])c3)C(=O)c3ccccc3C2=O)cc1[N+](=O)[O-] | inactive | inactive | – | inactive | inactive | – | inactive | inactive | 8 mm | inactive | – | – | – |
